Reference: PMC7603461, “Synthesis and in vitro characterization of the genotoxic, mutagenic and cell-transforming potential of nitrosylated heme” (Archives of Toxicology, 2020)
Where two headings read alike, the source gives them in different places.

How the values were obtained:
[1] = tested on: BALB/c 3T3 cells; assay: BALB/c 3T3 cell transformation assay (CTA); details: for cell-transforming potential: controls 61.54 µM DHAA
Experimental: The CTA was performed as previously described (Sasaki et al. [2012a]) and began with the seeding of 2 × 10^4 BALB/c 3T3 cells in 100 mm dishes (TPP) filled with 10 ml MEM medium. On day 1, the cells were incubated with the test substances for three days, followed by a medium change on day 4. From now on, the cells were incubated in DMEM/HAM’s F-12 medium supplemented with 2% (v/v) FCS, 100 µg ml^−1 streptomycin, 100 IU ml^−1 penicillin (all components were obtained from Biochrom) and 2 µg ml^−1 bovine pancreas insulin solution (Sigma-Aldrich). On days 7, 10, 14, 17, 21 and 24, the medium was changed and the cells were finally fixed on day 31 using ice-cold methanol. Lastly, the plates were stained with Giemsa solution and the number of type III foci formed was counted using a stereo microscope (SZX2-ILLT; Olympus, Hamburg, Germany).

[2] = tested on: heme oxygenase 1 (HO-1) in Caco-2 cells; assay: HO-1 expression as surrogate marker of cellular uptake (SDS-PAGE and Western blotting); type: cell-based, human; details: 50 and 100 µM, 24-h incubation, compared to control samples
Experimental: (§1) The cellular uptake of NO-heme and hematin was qualitatively investigated by using the expression of the intracellular heme-degrading protein heme oxygenase 1 (HO-1) as surrogate marker. Its expression was analyzed via SDS-PAGE and Western blotting in NO-heme-treated Caco-2 cells. Beforehand, the cytotoxicity of the heme species as well as solvents was evaluated using a commercial kit measuring cell viability based on the WST-1 reagent obtained from Roche Diagnostics (Mannheim, Germany) and performed according to the manufacturer's instructions. Briefly, 5 × 10^4 cells/well were seeded in 96-well plates (TPP) and incubated for 24 h. Then, the cells were treated with the test substances in triplicate for a further 24 h before they were washed with phosphate buffered saline (PBS) and incubated for 1.5 h with 100 μl/well medium supplemented with 10% (v/v) WST-1 reagent. Finally, absorption was measured at 450 nm (with a reference wavelength at 650 nm). For HO-1 expression analysis, Caco-2 cells (3 × 10^5/3.5 cm plate) were treated for 24 h as mentioned above, with 2% acetone/H2O and 2% acetone/NaOH serving as solvent controls. […] After final washings steps, proteins were detected with enhanced chemoluminescence using an Azure 300 CL imaging system (Azure biosystems, Dublin, USA). […]

[3] = tested on: BALB/c 3T3 cells; assay: Colony forming efficiency (CFE) cytotoxicity assay; details: for concentration at which cytotoxicity starts: CFE
Experimental: Briefly, 200 BALB/c 3T3 cells were seeded in 60 mm dishes (TPP) filled with 4 ml MEM medium. […] 3-Methylcholanthrene (MCA, Sigma-Aldrich) dissolved in DMSO was used as positive control. On day 4, the medium was removed and 4 ml fresh culture medium were added. On day 9, the cells were washed with saline, fixed with 4 ml ice-cold methanol (Carl Roth) for 10 min and then stained with Giemsa solution (Carl Roth) for 30 min. Finally, the stained dishes were washed with water and air-dried before cell colonies with a diameter of ≥ 2 mm were counted.

[4] = tested on: Salmonella typhimurium strain TA1535
Experimental: (§2) The Ames test was performed according to the pre-incubation method described by Mortelmans and Zeiger ([2000]), albeit with slight modifications. Briefly, the lyophilized Salmonella typhimurium strains TA100 (lot number 5220D, Trinova, Gießen, Germany) and TA1535 (lot number 5209D, Trinova) were cultured overnight in 50 ml nutrient broth no. 2 (Thermo Scientific) at 37 °C. Subsequently, the bacterial cultures were shaken for two hours at 125 rpm and 37 °C until the suspension reached an optical density of 1–1.3 at 600 nm. Then, 100 µl of the suspension were mixed with 500 µl of sodium phosphate buffer (final concentrations: 12 mM NaH2PO4, 88 mM Na2HPO4 [pH 7.4]; all components purchased from Carl Roth) and 50 µl of the test compound. Sodium azide (Sigma-Aldrich) was used as positive control and dissolved in ultrapure water. The bacteria were mixed and incubated with the test compounds for 30 min at 37 °C prior to being plated and further incubated for 48 h at 37 °C. Finally, the number of grown revertant colonies was counted.

[5] = tested on: Salmonella typhimurium strain TA100
Experimental: as §2

[6] = tested on: Caco-2 cells; assay: WST-1 cytotoxicity assay; type: cell-based, human; details: 50 µM
Experimental: as §1

[7] = tested on: Caco-2 cells; assay: Single cell electrophoresis assay (comet assay), Caco-2; type: cell-based, human; details: for genotoxic effects (tail intensity): Caco-2 cells, 1 h treatment, increasing concentrations of heme species, nitrite control 100 µM
Experimental: (§3) DNA-damaging effects of NO-heme were determined in Caco-2 and BALB/c 3T3 cells using the single cell electrophoresis assay (comet assay). […] The comet assay was performed as previously reported (Briviba et al. [2016]), with the following modifications: 2.15 × 10^4 cells/well were seeded in 6-well plates (Corning, Kennebunk, USA) and cultivated for five days. At day six after seeding, the cells were treated for 1 h with the different test substances diluted in Hank’s Balanced Salt Solution (HBSS; Lonza). Hydrogen peroxide and iron sulfate (both from Sigma-Aldrich) served as positive controls. After treatment, the cells were prepared as previously published (Briviba et al. [2016]) and incubated in a specific lysis buffer (100 mM Na2EDTA, 1% Triton X-100, […] NaCl, 1% lauroyl sarcosine sodium salt, 10 mM tris(hydroxymethyl)aminomethane [TRIS] and 10% dimethyl sulfoxide; all purchased from Merck, Darmstadt, Germany) for 1 h at 4 °C. Then, microscope slides were incubated in electrophoresis buffer (1 mM Na2EDTA, 300 mM NaOH; Merck) for 20 min at room temperature, followed by an electrophoresis run at 25 V and 300 mA for 40 min. Thereafter, the slides were washed three times with TRIS buffer (0.4 M; pH 7.5) and stained using 85 µl of a 4,6-diamidino-2-phenylindole solution (5 µg ml^−1; Merck). For quantification of the results, 100 cells per slide were analyzed using a DM 400 B fluorescence microscope (Leica, Wetzlar, Germany) connected to the Comet Assay II Image Analysis System (Perceptive Instruments, Halstedt, UK).

[8] = tested on: BALB/c 3T3 cells; assay: Single cell electrophoresis assay (comet assay), BALB/c 3T3; type: cell-based, murine; details: 1 h treatment; for increase of the tail intensity (genotoxic effect): heme species up to 100 µM, nitrite control 100 µM
Experimental: as §3

[9] = tested on: V79 Chinese hamster lung fibroblasts; design: method as in Cajelli et al. ([1987]); details: ref Cajelli et al. ([1987]); cited from earlier work
[10] = tested on: CHO-K1 cells; type: cell-based, Chinese hamster
Experimental: (§4) The investigation of potential cytotoxic effects induced by NO-heme in CHO-K1 cells was performed using a commercial cell proliferation kit based on the MTT reagent obtained from Roche Diagnostics and performed according to the manufacturer's instructions. Briefly, 3.5 × 10^4 cells/well were seeded in 96-well plates (Greiner Diagnostic, Balingen, Germany). Approximately 24 h later, the cells were treated with different NO-heme and acetone concentrations for another 24 h. Subsequently, cells were incubated with the MTT solution for 4 h, before 100 µl DMSO (Carl Roth) were added and absorbance was measured at a wavelength of 570 nm using a microplate reader (EL600; BioTek Instruments, Winooski, USA). The mitochondrial metabolic activity of NO-heme-treated cells was thereby compared to the vehicle control. The HPRT assay was performed according to OECD test guideline no. 476 (OECD [2016]) without exogenous metabolic activation. Briefly, 5 × 10^5 cells per sample were seeded in a 75 cm^2 cell culture flask (Greiner Bio-One) containing 15 ml of McCoy’s 5A medium. […] After another period of 9 days, colonies resistant to 6-thioguanine were fixed with methanol (Carl Roth), stained with methylene blue (Carl Roth) and counted. For the final evaluation of the test, the absolute number of mutations per one million CHO-K1 cells was calculated.

[11] = exposure to UV light and oxygen (sunlight and air), room temperature
Experimental: For the analysis of stability, NO-heme was stored in 15 ml centrifuge tubes (Greiner Bio-One, Frickenhausen, Germany) under different light and atmospheric conditions. […] The final solution was further diluted in 80% acetone/H2O to a final volume of 12.5 ml and allocated to four centrifuge tubes containing 3 ml each. Two of the NO-heme samples were stored in the dark at room temperature, flushed with nitrogen and additionally sealed with thermoplastic film (Parafilm® M, Sigma-Aldrich). The other samples were incubated at room temperature and exposed to sunlight and air. The NO-heme content of each tube was analyzed by UV–Vis and FTIR spectroscopy after 0, 2, 4 and 24 h of incubation.

[12] = tested on: DNA; design: method as in Tamir et al. [1996]; details: at least tenfold higher than NO-heme; ref Tamir et al. [1996]; cited from earlier work
[13] = ref Kodama et al. [1976]; Tsuda and Hasegawa [1990]; Stevanovic et al. [2000]; cited from earlier work
[14] = tested on: CHO-K1-BH4 cells; assay: In vitro mammalian cell gene mutation test (HPRT assay); type: cell-based, Chinese hamster; details: 4 h treatment, without metabolic activation, 100 µM as well as 200 µM heme species, nitrite control 100 µM
Experimental: as §4

[15] = tested on: BALB/c 3T3 cells; details: ref Kodama et al. [1976]; Tsuda and Hasegawa [1990]; Stevanovic et al. [2000]; cited from earlier work
[16] = tested on: murine cell lines; details: ref Kodama et al. [1976], Görsdorf et al. [1990]; cited from earlier work
[17] = TA1535, pre-incubation method, up to 300 µM NO-heme and hematin, 1.54 mM NaN3, 100 µM NaNO2
[18] = TA100, pre-incubation method, up to 300 µM NO-heme and hematin, 1.54 mM NaN3, 100 µM NaNO2

Compound: C=CC1=C(C)c2cc3[n-]c(cc4[n-]c(cc5nc(cc1n2)C(C)=C5C=C)c(C)c4CCC(=O)O)c(CCC(=O)O)c3C.O.[Fe+2] [hematin]
- amount of type III foci compared to the corresponding solvent control ([1]; 150 µM, treatment for three days): significant increase
- expression of HO-1 [2]: increased expression of HO-1
- cytotoxicity ([3]; up to the maximum concentration of 200 µM): no sign of cytotoxicity
- mutagenic effects (revertant colonies) [4, 17]: no mutagenic effects were detected
- mutagenic effects (revertant colonies) [5, 18]: no mutagenic effects were detected
- relative cell viability ([6]; Caco-2 cells, 24 h, WST-1): 45 % of the control
- genotoxic effects (tail intensity) [7]: exhibiting genotoxic effects
- concentration range with statistically significant increase of tail intensity [8]: 10 to 100 µM
- increase of the tail intensity (genotoxic effect) [8]: dose-dependent increase of the tail intensity with statistically significant effects

Compound: O=C1OC(C(O)CO)C(=O)C1=O (stereo not shown) [DHAA, dehydroascorbic acid]
- cell-transforming potential ([1]; 100 µM NaNO2): no cell-transforming potential
- concentration at which cytotoxicity starts [3]: 750 µM

Compound: O=CCC=O [MDA, malondialdehyde]
- mutagenicity in the HGPRT assay [9]: mutagenic potential

Compound: nitrosylated heme [NO-heme]
- expression of HO-1 [2]: increased expression of HO-1
- relative cell viability ([10]; 50 µM): 87%
- relative cell viability ([10]; 200 µM): 59%
- mutagenic effects (revertant colonies) [4, 17]: no mutagenic effects were detected
- mutagenic effects (revertant colonies) [5, 18]: no mutagenic effects were detected
- relative cell viability [6]: 43 % of the control
- concentration needed to induce DNA strand breaks [7]: 100 µM
- time until absorbance signals in the UV–Vis spectrum are reduced [11]: two

Compound: O=NOO [peroxynitrite]
- concentration needed to induce DNA strand breaks [12]: 1 mM

Compound: O=N[O-].[Na+] [sodium nitrite, Sodium nitrite]
- cell-transforming potential ([1]; 100 µM NaNO2): no cell-transforming potential
- cell-transforming potential ([1]; 100 µM NaNO2, listed as nitrite): no genotoxic, mutagenic or cell-transforming effects
- concentrations at which mutagenic in the HPRT assay [13]: 1 to 10 mM
- frequencies of mutations compared to the solvent controls [14]: no genotoxic, mutagenic or cell-transforming effects
- concentrations leading to malignant transformation of BALB/c 3T3 cells [15]: 1 to 10 mM
- concentration at which cytotoxicity starts [3]: 6000 µM
- induction of DNA single strand breaks [16]: did not induce DNA single strand breaks
- mutagenic effects (revertant colonies) [4]: no genotoxic, mutagenic or cell-transforming effects
- mutagenic effects (revertant colonies) [5]: no genotoxic, mutagenic or cell-transforming effects
- genotoxic effects (tail intensity) [7]: no genotoxic, mutagenic or cell-transforming effects
- increase of the tail intensity (genotoxic effect) [8]: no genotoxic, mutagenic or cell-transforming effects

Compound: [N-]=[N+]=[N-].[Na+] [NaN3, Sodium azide]
- mutagenic effects (revertant colonies) [4, 17]: Except for the positive control NaN3, no mutagenic effects were detected
- mutagenic effects (revertant colonies) [5, 18]: Except for the positive control NaN3, no mutagenic effects were detected
